# Legend:
# [1] = test system: Human immunodeficiency virus 1; test: Antiviral activity against HIV-1 LAV virus infected MT-2 cells with reference to AZT (ED90=0.3 uM); type: functional, MT2
# [2] = target: Human immunodeficiency virus type 1 protease (Human immunodeficiency virus 1, UniProt Q72874); test: In vitro inhibition of HIV-1 protease at pH 6 using 164 uM peptide substrate
# MT2 = test: The compound was tested for its antiviral activity against HIV-1LAV virus infected MT-2 cells; type: functional, Homo sapiens
# [3] = target: Human immunodeficiency virus type 1 protease (Human immunodeficiency virus 1) (UniProt Q72874); test: The compound was tested in vitro for the % inhibition of HIV-1 protease at 100 uM concentration
# Cathepsin D = Cathepsin D (Homo sapiens, UniProt P07339); test: The compound was tested for its inhibitory activity against human cathepsin D
# Gastricsin = target: T1, Gastricsin (Homo sapiens, UniProt P20142); test: The compound was tested for its inhibitory activity against human gastricsin
# T1 sequence (P20142 whole entry): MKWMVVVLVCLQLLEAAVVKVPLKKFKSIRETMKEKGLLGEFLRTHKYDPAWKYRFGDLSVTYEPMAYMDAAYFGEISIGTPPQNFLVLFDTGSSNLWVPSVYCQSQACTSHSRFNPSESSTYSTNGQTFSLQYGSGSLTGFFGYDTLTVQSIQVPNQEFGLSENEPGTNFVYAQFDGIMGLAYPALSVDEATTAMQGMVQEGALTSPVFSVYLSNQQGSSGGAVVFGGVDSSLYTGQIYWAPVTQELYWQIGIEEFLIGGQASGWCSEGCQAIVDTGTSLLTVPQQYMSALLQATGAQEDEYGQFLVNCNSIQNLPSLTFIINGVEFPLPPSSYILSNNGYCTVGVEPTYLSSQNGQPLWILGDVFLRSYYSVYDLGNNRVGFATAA
# Cathepsin E = target: T2, Cathepsin E (Homo sapiens, UniProt P14091); test: The compound was tested for its inhibitory activity against human cathepsin E
# T2 sequence (P14091 whole entry): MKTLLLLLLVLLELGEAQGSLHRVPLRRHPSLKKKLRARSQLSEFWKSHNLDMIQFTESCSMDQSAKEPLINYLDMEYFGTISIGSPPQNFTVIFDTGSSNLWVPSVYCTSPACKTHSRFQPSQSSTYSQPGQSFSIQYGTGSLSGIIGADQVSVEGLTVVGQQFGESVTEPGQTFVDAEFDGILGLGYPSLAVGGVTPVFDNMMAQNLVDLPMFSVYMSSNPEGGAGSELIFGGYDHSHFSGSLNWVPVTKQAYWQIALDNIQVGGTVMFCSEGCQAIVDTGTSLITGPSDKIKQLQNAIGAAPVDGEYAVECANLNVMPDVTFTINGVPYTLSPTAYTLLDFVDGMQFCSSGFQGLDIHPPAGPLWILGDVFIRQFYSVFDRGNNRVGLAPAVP
# Renin = target: T3, Renin (Homo sapiens, UniProt P00797); test: The compound was tested for its inhibitory activity against human renin
# T3 sequence (P00797 whole entry): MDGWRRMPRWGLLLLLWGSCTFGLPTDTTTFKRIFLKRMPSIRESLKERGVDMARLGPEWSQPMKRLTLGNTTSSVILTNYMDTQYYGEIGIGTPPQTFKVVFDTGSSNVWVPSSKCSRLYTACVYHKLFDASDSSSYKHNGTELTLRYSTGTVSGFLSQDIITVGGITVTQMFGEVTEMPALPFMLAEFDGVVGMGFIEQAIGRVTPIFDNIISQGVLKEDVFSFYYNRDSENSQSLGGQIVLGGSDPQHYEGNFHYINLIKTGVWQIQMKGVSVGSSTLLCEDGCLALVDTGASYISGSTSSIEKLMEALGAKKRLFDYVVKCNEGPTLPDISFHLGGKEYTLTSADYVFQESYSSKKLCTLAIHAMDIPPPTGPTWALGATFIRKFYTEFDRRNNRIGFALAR
# Cathepsin D, sequence (P07339 65-162 limits assumed): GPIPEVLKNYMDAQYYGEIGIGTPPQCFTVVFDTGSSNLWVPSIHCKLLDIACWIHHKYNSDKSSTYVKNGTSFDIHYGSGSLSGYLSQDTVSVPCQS
# Cathepsin D, sequence (P07339 169-412 limits assumed): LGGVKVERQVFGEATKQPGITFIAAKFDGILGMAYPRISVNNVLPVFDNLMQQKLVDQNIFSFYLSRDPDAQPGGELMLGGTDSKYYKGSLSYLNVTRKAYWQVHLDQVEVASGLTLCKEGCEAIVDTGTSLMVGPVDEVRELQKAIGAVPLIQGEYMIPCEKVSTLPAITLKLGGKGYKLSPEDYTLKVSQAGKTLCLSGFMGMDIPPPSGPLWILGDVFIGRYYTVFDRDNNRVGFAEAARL
Compound,ED90 [1] [nM],IC50 [2] [nM],further results
CC(C)[C@H](NC(=O)OCc1ccccc1)C(=O)N[C@@H](Cc1ccccc1)[C@@H](O)CN(CC1CCCCC1)NC(=O)[C@@H](NC(=O)OCc1ccccc1)C(C)C,1000,95,
CC(C)[C@H](NC(=O)c1ccc2ccccc2n1)C(=O)N[C@@H](Cc1ccccc1)[C@@H](O)CN(Cc1ccccc1)NC(=O)[C@H](NC(=O)c1ccc2ccccc2n1)C(C)C,,65,
CC(C)[C@H](NC(=O)OCc1ccccc1)C(=O)N[C@@H](Cc1ccccc1)[C@@H](O)CN(Cc1ccc(F)cc1)NC(=O)[C@@H](NC(=O)OCc1ccccc1)C(C)C,1000,22,
CC(C)[C@H](NC(=O)OC(C)(C)C)C(=O)N[C@@H](Cc1ccccc1)[C@@H](O)CN(Cc1ccccc1)NC(=O)[C@H](NC(=O)OC(C)(C)C)C(C)C,,52000,
CC(C)(C)OC(=O)N[C@@H](Cc1ccccc1)[C@@H](O)CN(Cc1ccccc1)NC(=O)OC(C)(C)C,,~50000,
CC(=O)N[C@H](C(=O)N[C@@H](Cc1ccccc1)[C@@H](O)CN(Cc1ccc(C#N)cc1)NC(=O)[C@@H](NC(C)=O)C(C)C)C(C)C,>10000,50,
CC(C)[C@H](NC(=O)OCc1ccccc1)C(=O)N[C@@H](Cc1ccccc1)[C@@H](O)CN(Cc1ccc(C#N)cc1)NC(=O)[C@@H](NC(=O)OCc1ccccc1)C(C)C,100,24,
CC(C)[C@H](NC(=O)OCc1ccccc1)C(=O)N[C@@H](Cc1ccccc1)[C@@H](O)CN(Cc1ccccc1)NC(=O)[C@H](NC(=O)OCc1ccccc1)C(C)C,100,33,
CC(=O)N[C@H](C(=O)N[C@@H](Cc1ccccc1)[C@@H](O)CN(Cc1ccc(F)cc1)NC(=O)[C@@H](NC(C)=O)C(C)C)C(C)C,10000,28,
Cc1cn([C@H]2C[C@H](N=[N+]=[N-])[C@@H](CO)O2)c(=O)[nH]c1=O [ZIDOVUDINE],,,ED90 (MT2): 300 nM
CC(=O)N[C@H](C(=O)N[C@@H](Cc1ccccc1)[C@@H](O)CN(Cc1ccccc1)NC(=O)[C@H](NC(C)=O)C(C)C)C(C)C,10000,30,
CC(C)[C@H](NC(=O)N1CCOCC1)C(=O)N[C@@H](Cc1ccccc1)[C@@H](O)CN(Cc1ccccc1)NC(=O)[C@H](NC(=O)N1CCOCC1)C(C)C,,2000,
CC(C)[C@H](NC(=O)Cc1cccnc1)C(=O)N[C@@H](Cc1ccccc1)[C@@H](O)CN(Cc1ccccc1)NC(=O)[C@H](NC(=O)Cc1cccnc1)C(C)C,,500,
CC(=O)N[C@H](C(=O)N[C@@H](Cc1ccccc1)[C@@H](O)CN(CC(C)C)NC(=O)[C@@H](NC(C)=O)C(C)C)C(C)C,>1000,45,
CC(C)[C@H](NC(=O)OCc1ccccc1)C(=O)NN(Cc1ccccc1)C[C@H](O)[C@H](Cc1ccccc1)NC(=O)[C@H](NC(=O)OCc1ccccc1)C(C)C,,> 100000,inhibition [3]: 40%
CC(C)[C@H](N)C(=O)N[C@@H](Cc1ccccc1)[C@@H](O)CN(Cc1ccccc1)NC(=O)[C@H](N)C(C)C,,> 100000,inhibition [3]: 32%
CC(=O)N[C@H](C(=O)N[C@@H](Cc1ccccc1)[C@@H](O)CN(CC1CCCCC1)NC(=O)[C@@H](NC(C)=O)C(C)C)C(C)C,1000,9,IC50 (Cathepsin D): 7500 nM; IC50 (Gastricsin): 1000 nM; IC50 (Cathepsin E): 2000 nM; IC50 (Renin): > 58000 nM
CC(C)CN(C[C@H](O)[C@H](Cc1ccccc1)NC(=O)[C@@H](NC(=O)OCc1ccccc1)C(C)C)NC(=O)[C@@H](NC(=O)OCc1ccccc1)C(C)C,>1000,10,
CC(C)[C@H](NC(=O)Cc1ccccc1)C(=O)N[C@@H](Cc1ccccc1)[C@@H](O)CN(Cc1ccccc1)NC(=O)[C@H](NC(=O)Cc1ccccc1)C(C)C,,360,
